Active and inactive are the calls of the source.
How the values were obtained:
Hexokinase = Hexokinase (Trypanosoma brucei, UniProt Q38C41); assay: Confirmation assay for inhibitors of Trypanosoma brucei hexokinase 1-Analogue-first series. [Related pubchem assays (depositor defined):AID1430, AID1632, AID2516, AID2560, AID2579, AID2600, AID449725, AID492951]; assay type: functional
[1] = target: Alkaline phosphatase, placental type (Homo sapiens, UniProt P05187); assay: PLAP enzyme inhibitors, confirmation, biochemical, luminescence (AID 1512); assay type: functional
[2] = target: T1, Alkaline phosphatase, tissue-nonspecific isozyme (Homo sapiens, UniProt P05186); assay: human TNAP enzyme inhibitors, SAR follow-up, biochemical, luminescent, dose response (AID 1056)
T1 sequence (P05186 whole entry): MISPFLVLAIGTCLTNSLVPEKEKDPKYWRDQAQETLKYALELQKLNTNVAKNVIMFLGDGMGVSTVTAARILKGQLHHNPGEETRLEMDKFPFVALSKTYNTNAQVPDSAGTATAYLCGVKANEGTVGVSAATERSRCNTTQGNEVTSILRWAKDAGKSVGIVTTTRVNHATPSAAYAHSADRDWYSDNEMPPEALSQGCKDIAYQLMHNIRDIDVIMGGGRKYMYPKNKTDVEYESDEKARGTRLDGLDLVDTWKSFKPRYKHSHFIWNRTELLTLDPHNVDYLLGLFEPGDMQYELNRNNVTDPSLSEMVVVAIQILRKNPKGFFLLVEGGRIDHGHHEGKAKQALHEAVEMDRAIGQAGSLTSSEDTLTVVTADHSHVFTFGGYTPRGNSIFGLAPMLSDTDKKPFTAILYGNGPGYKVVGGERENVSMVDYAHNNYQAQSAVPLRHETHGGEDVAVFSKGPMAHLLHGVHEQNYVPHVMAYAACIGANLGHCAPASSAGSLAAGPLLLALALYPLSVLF

[3] = target: T2, G-protein coupled receptor 55 (Homo sapiens, UniProt Q9Y2T6); assay: GPR55 antagonist potency of analogs, SAR follow-up, imaging, U2OS, beta-arrestin-GFP, LPI agonist, set 2 (AID 2820); assay type: functional
Cannabinoid receptor 2 [4] = target: T3, Cannabinoid receptor 2 (Homo sapiens, UniProt P34972); assay: SAR analysis of antagonists of the Cannabinoid Receptor 2 using an Image-Based Assay. [Related pubchem assays (depositor defined):AID2013, AID2026]; assay type: functional
[5] = target: T4, G-protein coupled receptor 35 (Homo sapiens, UniProt Q9HC97); assay: SAR analysis of Agonists of the GPR35 Receptor using an Image-Based Assay - Set 2. [Related pubchem assays (depositor defined):AID2013, AID2026]; assay type: functional
[6] = Counterscreen for activators of the function of SWI/SNF related, matrix associated, actin dependent regulator of chromatin, subfamily a, member 2 (SMARCA2, BRM): Luminescence-based cell-based high throughput dose response assay to identify non-selective compounds using the VP16 reporter assay.; assay type: functional
Cannabinoid receptor 2 [7] = target: T3, Cannabinoid receptor 2; assay: SAR analysis of agonists of the Cannabinoid Receptor 2 using an Image-Based Assay. [Related pubchem assays (depositor defined):AID2013, AID2026]; assay type: functional
Cannabinoid receptor 1 [8] = target: T5, Cannabinoid receptor 1 (Homo sapiens, UniProt P21554); assay: SAR analysis of antagonists of the Cannabinoid Receptor 1 using an Image-Based Assay - Set 2. [Related pubchem assays (depositor defined):AID2013, AID2026]; assay type: functional
[9] = target: T2, G-protein coupled receptor 55; assay: GPR55 antagonists blocking LPI-driven arrestin recruitment, primary screen, imaging, U2OS, beta-arrestin-GFP, LPI agonist (AID 2013); assay type: functional;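 further: antagonist potency measured as reduced agonist-driven arrestin aggregation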
Cannabinoid receptor 1 [10] = target: T5, Cannabinoid receptor 1; assay: SAR analysis of agonists of the Cannabinoid Receptor 1 using an Image-Based Assay - Set 2. [Related pubchem assays (depositor defined):AID2013, AID2026]; assay type: functional
[11] = target: SWI/SNF-related matrix-associated actin-dependent regulator of chromatin subfamily A member 2 (Homo sapiens, UniProt P51531); assay: Luminescence-based cell-based high throughput dose response assay to identify activators of the function of SWI/SNF related, matrix associated, actin dependent regulator of chromatin, subfamily a, member 2 (SMARCA2, BRM).; assay type: functional
[12] = target: T4, G-protein coupled receptor 35; assay: SAR analysis of Antagonists of the GPR35 Receptor using an Image-Based Assay - Set 3. [Related pubchem assays (depositor defined):AID2013, AID2026]; assay type: functional
[13] = target: T6, Runt-related transcription factor 1/Core-binding factor subunit beta (Homo sapiens, UniProt Q01196+Q13951); assay: inhibitors of RUNX1 Runt–CBFb-SMMHC binding, primary screen, biochemical, FRET, Cerulean-Runt, Venus-CBFb-SMMHC, uHTS (AID 1434); assay type: protein assay;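 further: partner is the CBFb-SMMHC leukemia fusion protein rather than wild-type CBFb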
[14] = target: T6, Runt-related transcription factor 1/Core-binding factor subunit beta; assay: inhibitors of RUNX1 Runt–CBFb-SMMHC binding, biochemical, TR-FRET (AID 1438); assay type: protein assay
[15] = HEp-2 cell cytotoxicity, dose response, cytotoxicity control for RSV inhibitor project, HTS (AID 2410); assay type: functional; details: human respiratory syncytial virus
Cannabinoid receptor 2 [16] = target: T3, Cannabinoid receptor 2; assay: SAR analysis of agonists of the Cannabinoid Receptor 2 using an Image-Based Assay - Set 3. [Related pubchem assays (depositor defined):AID2013, AID2026]; assay type: functional
Cannabinoid receptor 2 [17] = target: T3, Cannabinoid receptor 2; assay: SAR analysis of antagonists of the Cannabinoid Receptor 2 using an Image-Based Assay - Set 3. [Related pubchem assays (depositor defined):AID2013, AID2026]; assay type: functional
[18] = target: T2, G-protein coupled receptor 55; assay: SAR Analysis of Selective Antagonists of GPR55 using an Image-Based Assay - Set 4. [Related pubchem assays (depositor defined):AID2013, AID2026]; assay type: functional
Cannabinoid receptor 1 [19] = target: T5, Cannabinoid receptor 1; assay: SAR analysis of antagonists of the Cannabinoid Receptor 1 using an Image-Based Assay - Set 4. [Related pubchem assays (depositor defined):AID2013, AID2026]; assay type: functional

T2 sequence (Q9Y2T6 whole entry): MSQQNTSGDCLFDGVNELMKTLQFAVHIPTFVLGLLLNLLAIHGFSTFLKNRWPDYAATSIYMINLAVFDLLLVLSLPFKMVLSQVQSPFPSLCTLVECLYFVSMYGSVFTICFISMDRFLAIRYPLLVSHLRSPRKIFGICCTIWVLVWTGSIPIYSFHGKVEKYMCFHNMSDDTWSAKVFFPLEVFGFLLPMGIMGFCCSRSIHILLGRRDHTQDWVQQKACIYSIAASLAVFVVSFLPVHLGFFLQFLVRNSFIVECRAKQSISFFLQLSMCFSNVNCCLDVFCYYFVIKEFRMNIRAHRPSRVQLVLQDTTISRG
T6 sequence (Q01196 whole entry, the tested form may be a part): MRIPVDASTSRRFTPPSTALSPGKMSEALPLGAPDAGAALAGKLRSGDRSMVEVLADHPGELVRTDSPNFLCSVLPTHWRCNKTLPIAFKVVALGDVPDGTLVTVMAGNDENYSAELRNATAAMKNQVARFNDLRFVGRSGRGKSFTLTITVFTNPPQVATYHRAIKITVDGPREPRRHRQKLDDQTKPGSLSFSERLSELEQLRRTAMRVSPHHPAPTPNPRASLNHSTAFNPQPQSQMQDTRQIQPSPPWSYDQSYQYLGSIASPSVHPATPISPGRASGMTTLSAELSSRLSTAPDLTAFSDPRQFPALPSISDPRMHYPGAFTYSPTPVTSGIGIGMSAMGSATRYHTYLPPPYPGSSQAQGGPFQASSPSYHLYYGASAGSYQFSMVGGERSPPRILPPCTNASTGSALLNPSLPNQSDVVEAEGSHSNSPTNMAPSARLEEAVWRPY
T6 sequence (Q13951 whole entry, the tested form may be a part): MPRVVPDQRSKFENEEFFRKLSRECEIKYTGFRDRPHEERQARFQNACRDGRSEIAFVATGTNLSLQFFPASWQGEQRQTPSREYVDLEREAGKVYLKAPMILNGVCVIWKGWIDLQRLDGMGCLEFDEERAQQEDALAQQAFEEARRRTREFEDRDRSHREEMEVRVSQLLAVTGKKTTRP
T3 sequence (P34972 whole entry): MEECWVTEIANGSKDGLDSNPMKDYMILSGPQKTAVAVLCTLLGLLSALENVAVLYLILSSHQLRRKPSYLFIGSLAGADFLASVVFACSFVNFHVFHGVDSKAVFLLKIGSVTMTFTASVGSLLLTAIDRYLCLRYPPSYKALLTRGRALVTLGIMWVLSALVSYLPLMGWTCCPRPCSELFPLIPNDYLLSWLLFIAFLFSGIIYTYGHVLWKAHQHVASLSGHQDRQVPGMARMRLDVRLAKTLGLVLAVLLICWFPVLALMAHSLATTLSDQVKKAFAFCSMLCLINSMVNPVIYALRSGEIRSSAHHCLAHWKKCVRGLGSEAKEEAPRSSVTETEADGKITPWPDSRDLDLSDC
T4 sequence (Q9HC97 whole entry): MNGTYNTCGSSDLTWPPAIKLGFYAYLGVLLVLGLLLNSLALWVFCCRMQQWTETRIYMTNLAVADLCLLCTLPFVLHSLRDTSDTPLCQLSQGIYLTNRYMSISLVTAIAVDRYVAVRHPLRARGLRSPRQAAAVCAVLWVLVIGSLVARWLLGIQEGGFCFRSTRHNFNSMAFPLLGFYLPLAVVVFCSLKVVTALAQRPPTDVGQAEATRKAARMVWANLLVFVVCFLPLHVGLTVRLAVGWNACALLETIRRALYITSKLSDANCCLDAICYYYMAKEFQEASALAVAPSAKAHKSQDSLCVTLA
T5 sequence (P21554 whole entry): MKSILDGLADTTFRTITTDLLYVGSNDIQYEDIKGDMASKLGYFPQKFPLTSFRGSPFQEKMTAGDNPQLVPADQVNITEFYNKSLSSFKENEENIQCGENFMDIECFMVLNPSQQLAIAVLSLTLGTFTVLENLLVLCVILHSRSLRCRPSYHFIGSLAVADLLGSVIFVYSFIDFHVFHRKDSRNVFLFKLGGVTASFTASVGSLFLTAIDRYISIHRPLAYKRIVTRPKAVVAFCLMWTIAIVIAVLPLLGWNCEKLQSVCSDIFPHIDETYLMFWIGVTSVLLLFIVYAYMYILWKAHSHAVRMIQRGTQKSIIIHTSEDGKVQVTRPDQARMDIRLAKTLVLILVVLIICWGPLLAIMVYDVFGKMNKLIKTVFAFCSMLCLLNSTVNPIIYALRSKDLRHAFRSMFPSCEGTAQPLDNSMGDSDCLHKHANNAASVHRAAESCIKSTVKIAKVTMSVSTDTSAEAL
Chain of Alkaline phosphatase, placental type (P05187 whole entry): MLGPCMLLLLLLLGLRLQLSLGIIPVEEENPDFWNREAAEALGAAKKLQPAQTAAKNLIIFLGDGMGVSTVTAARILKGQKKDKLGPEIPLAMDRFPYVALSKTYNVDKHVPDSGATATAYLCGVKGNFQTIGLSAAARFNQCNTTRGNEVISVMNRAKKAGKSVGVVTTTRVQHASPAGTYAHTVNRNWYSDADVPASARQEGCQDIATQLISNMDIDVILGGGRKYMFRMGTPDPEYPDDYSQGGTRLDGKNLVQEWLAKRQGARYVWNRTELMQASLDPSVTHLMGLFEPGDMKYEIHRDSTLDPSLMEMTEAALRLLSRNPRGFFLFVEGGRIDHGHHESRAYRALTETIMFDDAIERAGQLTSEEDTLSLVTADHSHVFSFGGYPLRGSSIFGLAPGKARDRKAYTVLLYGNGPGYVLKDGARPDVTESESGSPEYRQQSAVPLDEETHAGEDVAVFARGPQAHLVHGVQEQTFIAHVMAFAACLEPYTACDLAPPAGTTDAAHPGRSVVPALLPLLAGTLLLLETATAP
Chain of SWI/SNF-related matrix-associated actin-dependent regulator of chromatin subfamily A member 2 (P51531 whole entry): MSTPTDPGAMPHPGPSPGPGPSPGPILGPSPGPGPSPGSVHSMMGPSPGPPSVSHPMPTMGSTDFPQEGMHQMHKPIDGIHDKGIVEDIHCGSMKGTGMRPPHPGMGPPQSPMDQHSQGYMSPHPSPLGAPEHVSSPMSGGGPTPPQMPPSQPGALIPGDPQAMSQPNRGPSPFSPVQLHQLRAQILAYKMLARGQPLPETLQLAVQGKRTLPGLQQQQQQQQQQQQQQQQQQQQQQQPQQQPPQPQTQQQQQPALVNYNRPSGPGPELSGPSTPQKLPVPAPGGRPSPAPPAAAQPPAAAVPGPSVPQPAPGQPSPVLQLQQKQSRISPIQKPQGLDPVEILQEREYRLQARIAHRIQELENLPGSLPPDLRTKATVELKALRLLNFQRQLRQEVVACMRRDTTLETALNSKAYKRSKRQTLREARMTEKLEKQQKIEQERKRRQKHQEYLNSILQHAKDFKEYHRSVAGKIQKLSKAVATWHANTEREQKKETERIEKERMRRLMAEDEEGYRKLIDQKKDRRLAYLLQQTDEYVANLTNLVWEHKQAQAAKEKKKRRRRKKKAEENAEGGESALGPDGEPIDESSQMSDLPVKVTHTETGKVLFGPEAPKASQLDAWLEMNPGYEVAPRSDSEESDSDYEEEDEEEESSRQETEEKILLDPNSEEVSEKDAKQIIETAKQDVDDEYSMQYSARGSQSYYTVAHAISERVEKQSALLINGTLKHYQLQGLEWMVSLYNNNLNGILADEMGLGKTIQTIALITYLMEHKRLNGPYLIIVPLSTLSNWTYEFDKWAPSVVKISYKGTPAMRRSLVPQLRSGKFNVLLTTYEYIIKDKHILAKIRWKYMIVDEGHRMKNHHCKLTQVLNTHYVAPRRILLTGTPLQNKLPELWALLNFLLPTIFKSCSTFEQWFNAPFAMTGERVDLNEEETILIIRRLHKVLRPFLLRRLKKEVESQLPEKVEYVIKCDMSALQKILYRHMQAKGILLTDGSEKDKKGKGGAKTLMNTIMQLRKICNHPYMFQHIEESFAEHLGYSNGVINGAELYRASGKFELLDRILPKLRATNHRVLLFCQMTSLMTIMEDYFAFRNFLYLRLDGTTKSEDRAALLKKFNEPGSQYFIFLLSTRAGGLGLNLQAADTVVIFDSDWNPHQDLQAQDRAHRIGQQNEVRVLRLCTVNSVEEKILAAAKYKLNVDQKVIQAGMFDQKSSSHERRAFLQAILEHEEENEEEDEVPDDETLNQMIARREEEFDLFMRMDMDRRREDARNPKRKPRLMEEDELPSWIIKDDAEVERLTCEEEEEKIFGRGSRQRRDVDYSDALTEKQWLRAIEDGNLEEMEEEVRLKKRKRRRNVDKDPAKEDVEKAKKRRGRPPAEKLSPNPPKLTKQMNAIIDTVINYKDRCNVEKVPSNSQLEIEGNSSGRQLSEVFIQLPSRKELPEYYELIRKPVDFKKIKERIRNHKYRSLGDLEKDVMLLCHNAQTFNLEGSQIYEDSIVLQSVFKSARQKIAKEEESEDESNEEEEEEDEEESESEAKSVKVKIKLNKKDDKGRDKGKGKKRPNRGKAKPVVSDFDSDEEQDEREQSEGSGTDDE
Chain of Hexokinase (Q38C41 whole entry): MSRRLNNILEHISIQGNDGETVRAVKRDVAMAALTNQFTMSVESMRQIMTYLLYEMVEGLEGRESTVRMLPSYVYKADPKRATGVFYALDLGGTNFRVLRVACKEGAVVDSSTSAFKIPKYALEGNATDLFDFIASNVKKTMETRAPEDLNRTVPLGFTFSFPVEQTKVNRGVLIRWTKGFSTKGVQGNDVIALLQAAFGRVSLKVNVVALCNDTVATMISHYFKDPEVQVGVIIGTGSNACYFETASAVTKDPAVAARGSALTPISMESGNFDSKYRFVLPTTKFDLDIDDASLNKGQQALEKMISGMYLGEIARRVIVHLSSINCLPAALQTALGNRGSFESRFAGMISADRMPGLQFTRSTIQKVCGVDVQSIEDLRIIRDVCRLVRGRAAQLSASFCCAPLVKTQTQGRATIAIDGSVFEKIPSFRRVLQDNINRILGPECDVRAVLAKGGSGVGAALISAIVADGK

Row | Structure (SMILES) | IC50 [3] | IC50 (Cannabinoid receptor 2 [4]) | EC50 [5] | EC50 (Cannabinoid receptor 2 [7]) | IC50 (Cannabinoid receptor 1 [8]) | IC50 [9] | EC50 (Cannabinoid receptor 1 [10]) | IC50 [12] | IC50 [13] | IC50 [14] | also measured
1 | COC(=O)c1ccc(Cl)cc1NC(=O)c1ccccc1OC | – | – | – | – | – | – | – | – | – | – | IC50 (Hexokinase): > 25 µM (inactive)
2 | O=C(NC1(C(F)(F)F)Oc2ccccc2O1)c1ccc(Cl)cc1 | – | – | – | – | – | – | – | – | – | – | IC50 [1]: > 100 µM (inactive); IC50 [2]: > 100 µM (inactive)
3 | Cc1ccc2nc3c(cc(C(=O)NCc4ccco4)c(=N)n3C3CCCC3)c(=O)n2c1 | 0.354 µM (active) | > 32 µM (inactive) | > 32 µM (inactive) | > 32 µM (inactive) | > 32 µM (inactive) | 3.98 µM (active) | > 32 µM (inactive) | > 32 µM (inactive) | – | – | EC50 [6]: > 91.2 µM (inactive); EC50 [11]: > 91.2 µM (inactive)
4 | COc1ccc2o/c(=N\O)c(C(=O)Nc3ccccc3OC)cc2c1 | – | – | – | – | – | – | – | – | 59 µM (inactive) | 60.5 µM (inactive) | –
5 | Nc1c(C(=O)NCc2ccco2)c2nc3ccccc3nc2n1CCc1ccccc1F | – | – | – | – | – | – | – | – | 13.7 µM (active) | 86.3 µM (inactive) | CC50 [15]: 24.3 µM (active)
6 | CCOC(=O)c1cc2c(=O)n3ccccc3nc2n(Cc2ccccc2)c1=N | 0.878 µM (active) | > 32 µM (inactive) | > 32 µM (inactive) | > 32 µM (inactive) | > 32 µM (inactive) | < 0.5 µM (active) | > 32 µM (inactive) | > 32 µM (inactive) | – | – | EC50 (Cannabinoid receptor 2 [16]): > 32 µM (inactive); IC50 (Cannabinoid receptor 2 [17]): > 32 µM (inactive); IC50 [18]: > 32 µM (inactive); IC50 (Cannabinoid receptor 1 [19]): 0.069 µM (active)
